What was measured:
MDA-MB-231 [1] = assay: Receptor binding competitive assay (triptorelin pre-treatment, MTT); format: cell-based, human; conditions: MDA-MB-231 pre-treated with 100 µM of triptorelin (TRN) for 2 h
Protocol: FIGS. 5A and 5B: Receptor binding competitive assay. MDA-MB-231 was pre-treated with triptorelin (TRN) and LM (LD5-mc-vc-PABC-MMAE) then the MTT assay was performed. (A) The IC50 value (nM) was calculated by non-linear regression (curve fit) for PC-3 and MDA-MB-231 with and without pre-treatment with triptorelin. (B) The cell viability in TRN-LM was assessed in comparison to LM in MDA-MB-231 (TNBC cell line). The cytotoxic effects of LM is reversed after pre-treatment with triptorelin indicating a significant role of LHRH-Rs in the mechanism of action of LM. Two-way ANOVA was performed followed by Sidak's multiple comparisons test (***p<0.00001). Error bars are standard deviations (STDV), n=8 (3 independent repeats).
Receptor binding competitive assay was performed to examine the association of cytotoxicity with binding to LHRH-Rs. TNBC cells (MDA-MB-231) were pre-treated with 100 µM of triptorelin (TRN) for 2 h to block the LHRH-R. The significant cytotoxic effects of LD5-mc-vc-PABC-MMAE (LM) was reversed after pre-treatment with TRN (FIGS. 5A and 5B).

LHRH-R = biological target: T1, LHRH-R (Homo sapiens, UniProt P30968); assay: Duolink proximity ligation assay (PLA) in MDA-MB-231; format: binding
T1 construct: endogenous in cells; host or cells: MDA-MB-231
T1 sequence (P30968 1-328): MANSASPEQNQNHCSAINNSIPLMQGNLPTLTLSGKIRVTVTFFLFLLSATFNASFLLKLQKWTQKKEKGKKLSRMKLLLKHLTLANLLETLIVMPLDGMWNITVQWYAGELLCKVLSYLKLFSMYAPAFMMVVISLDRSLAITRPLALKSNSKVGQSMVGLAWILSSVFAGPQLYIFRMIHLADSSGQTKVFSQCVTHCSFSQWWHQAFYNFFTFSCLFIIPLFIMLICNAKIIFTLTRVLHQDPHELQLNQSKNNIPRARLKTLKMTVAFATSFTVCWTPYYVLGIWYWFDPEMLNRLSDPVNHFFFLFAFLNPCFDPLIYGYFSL
Protocol: FIG. 6: Proximity ligation assay was used to show the protein-protein interaction between LHRH-R and LHRH in MDA-MB-231 (TNBC cell model) treated with LD5-me-vc-PABC-MMAE (1 μM) compared to negative control (PBS). Stained nucleus (DAPI blue) and PLA signal (TexasRed) were detected by LEICA SPE2 confocal LSM.
The binding affinity of the LD5-me-vc-PABC-MMAE conjugate to LHRH receptors was investigated by DuoLink assay.
Proximity ligation assay (PLA) was used to determine the interaction between LHRH-R and LHRH in LD5-mc-vc-PABC-MMAE treated cells. Duolink® Proximity Ligation Assay (PLA) allows in situ detection of endogenous proteins, protein modifications, and protein interactions with high specificity and sensitivity. Protein targets can be readily detected and localized with single molecule resolution in unmodified cells and tissues. Typically, two primary antibodies raised in different species are used to detect two unique protein targets. PLA reagents were added to the fixed MDA-MB-231 cells after incubating these cells with the primary antibody specific for LHRH-R and LHRH.

MDA-MB-231 [2] = assay: Uptake after silencing LHRH-R gene in MDA-MB-231; format: cell-based, human; conditions: MDA-MB-231, LHRH-R siRNA, 1 μM, 18 h
Protocol: FIGS. 10A and 10B: Uptake of LD5-me-vc-PABC-MMAE (LM) after silencing LHRH-R in MDA-MB-231 cells. The cells were treated with LHRH-R siRNA and co-transfected with fluorescent labelled siRNA negative control as transfection efficiency signal (FAM-transfection control). LHRH-R negative control refers to MDA-MB-231 cells that were not transfected with LHRH-R siRNA and FAM-transfection control. (A) Silenced LHRH-R cells and negative control cells were treated with LM (1 μM) for 18 h and LM signal was detected by immunocytochemistry with specific LHRH binding of primary antibody labelled by Rhodamine-conjugated secondary antibody. Immunocytochemical images were captured by LEICA SPE2 confocal LSM. (B) The LM signal intensity in both silenced LHRH-R and negative control was measured by Fiji J software. […] The data was analysed by unpaired t-test with Welch's correction (**** p<0.0001). Error bars are standard deviations (STDV), n=8 (3 independent repeats).
To further examine the role of LHRH-R in the uptake of LD5-me-vc-PABC-MMAE, LHRH-R expression was blocked by silencing their gene in MDA-MB-231 (TNBC cell model). This study was performed by co-transfection of siRNAs (RNAi-Mate transfection reagent and siRNA, GNRHR-homo-2242, GNRHR-homo-2701, and scrambled RNA were from GenePharma) and a fluorescently labelled negative control siRNA (FAM transfection efficiency control was from GenePharma).

[3] = In vitro metabolic stability (release of free MMAE, LC/MS), mouse plasma; format: in vitro ADME; conditions: 1 μM, 37° C., 10 days
Protocol: FIG. 11: Stability of LHRHD-(mc-vc-PABC)-MMAE (i.e. LD5-mc-vc-PABC-MMAE) in human plasma, mouse plasma, and cell culture media (c-media). The stability was measured based on the presence of free MMAE detected in the samples by LC-MS at each time point relative to time 0. Error Bars are standard deviations (STDV), p>0.05 and n=9 (mean is calculated from samples in triplicate in 3 independent experiments).
The metabolic stability of LD5-(mc-vc-PABC)-MMAE was investigated in cell culture media (c-media), human and mouse plasma. An LC/MS method was developed to detect both free MMAE and the presence of any degraded species from the whole construct, LD5-(mc-vc-PABC)-MMAE. To evaluate the stability of the valine-citrulline linkage, LD5-(mc-vc-PABC)-MMAE at 1 μM was incubated in c-media, human and mouse plasma at 37° C. for a period of 10 days. Aliquots were taken at pre-determined time intervals (t=0, 1, 2, 4, 7, 10 days) and analysed by LC/MS for the release of free MMAE.

With `CCNC(=O)[C@@H]1CCCN1C(=O)[C@H](CCCNC(=N)N)NC(=O)[C@H](CC(C)C)NC(=O)[C@@H](CCCCNC1CC(=O)N(CCCCCC(=O)N[C@H](C(=O)N[C@@H](CCCNC(N)=O)C(=O)Nc2ccc(COC(=O)N(C)[C@H](C(=O)N[C@H](C(=O)N(C)[C@@H]([C@@H](C)CC)[C@@H](CC(=O)N3CCC[C@H]3[C@H](OC)[C@@H](C)C(=O)N[C@H](C)[C@@H](O)c3ccccc3)OC)C(C)C)C(C)C)cc2)C(C)C)C1=O)NC(=O)[C@H](Cc1ccc(O)cc1)NC(=O)[C@H](CO)NC(=O)[C@H](Cc1c[nH]c2ccccc12)NC(=O)[C@H](Cc1c[nH]cn1)NC(=O)[C@@H]1CCC(=O)N1` (some centres unmarked) [LD5-mc-vc-PABC-MMAE] the “cytotoxic effects after pre-treatment with triptorelin” value (MDA-MB-231 [1]) was “reversed”, the “binding affinity to LHRH receptors (DuoLink assay)” value (LHRH-R; MDA-MB-231, 1 μM) was “high binding affinity” and the “interaction between LHRH-R and LHRH (PLA signal)” value (LHRH-R; fixed MDA-MB-231 cells, qualitative) was “confirmed interactions between LHRH-R and its ligand”. The “uptake after silencing the LHRH-R gene” value (MDA-MB-231 [2]) was “significantly reduced” and the “total drug released as MMAE” value [3] was “less than 5%”.

Source: US20220211860A1, “PEPTIDE DERIVATIVES AND CONJUGATES THEREOF FOR TREATING CANCER” (priority 2019, published 2022)
